Data reported in patent US12077503B2, “Substituted cyclic amides and their use as herbicides” (FMC CORPORATION, priority 2015, dated 2024).

Key:
Assay type in all cases: in vivo
[1] = test system: velvetleaf (Abutilon theophrasti); assay: Test G Pre-Emergence Protocol; settings: Abutilon theophrasti, pre-emergence, 312 h, evaluated after 13 days; for pest or weed control at 15.625 g/ha: 15.625 g ai/ha; for pest or weed control at 15.625 g/ha / pest or weed control at 250 g/ha: read-out: Velvetleaf damage rating (100=total damage to plant; 0=no damage to plant); for pest or weed control at 62.5 g/ha: 62.5 g ai/ha, 100=total damage to plant, 0=no damage to plant, read-out: plant damage rating, Velvetleaf; for pest or weed control at 250 g/ha: 250 g ai/ha
In short: (§1)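 Scores are visual damage ratings from 0 (no damage) to 100 (total plant kill), taken 13 days after treatment. Compound was sprayed one day post-sowing at 15.625, 62.5 or 250 g/ha in 50:50 acetone/water with 0.5% Tween 20.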

[2] = test system: giant foxtail (Setaria faberi); assay: Test G Pre-Emergence Protocol; settings: Setaria faberi, pre-emergence, 312 h, evaluated after 13 days; for pest or weed control at 15.625 g/ha: 15.625 g ai/ha; for pest or weed control at 15.625 g/ha / pest or weed control at 250 g/ha: read-out: Foxtail, Giant damage rating (100=total damage to plant; 0=no damage to plant); for pest or weed control at 62.5 g/ha: 62.5 g ai/ha, 100=total damage to plant, 0=no damage to plant, read-out: plant damage rating, Foxtail, Giant; for pest or weed control at 250 g/ha: 250 g ai/ha
In short: as §1

corn (Zea mays) [3] = assay: Test G Pre-Emergence Protocol; settings: Zea mays, pre-emergence, 312 h, evaluated after 13 days; for plant injury at 15.625 g/ha: 15.625 g ai/ha; for plant injury at 15.625 g/ha / plant injury at 250 g/ha: read-out: Corn damage rating (100=total damage to plant; 0=no damage to plant); for plant injury at 62.5 g/ha: 62.5 g ai/ha, 100=total damage to plant, 0=no damage to plant, read-out: plant damage rating, Corn; for plant injury at 250 g/ha: 250 g ai/ha
In short: as §1

[4] = test system: redroot pigweed (Amaranthus retroflexus); assay: Test G Pre-Emergence Protocol; settings: Amaranthus retroflexus, pre-emergence, 312 h, evaluated after 13 days; for pest or weed control at 15.625 g/ha: 15.625 g ai/ha; for pest or weed control at 15.625 g/ha / pest or weed control at 250 g/ha: read-out: Pigweed, Redroot damage rating (100=total damage to plant; 0=no damage to plant); for pest or weed control at 62.5 g/ha: 62.5 g ai/ha, 100=total damage to plant, 0=no damage to plant, read-out: plant damage rating, Pigweed, Redroot; for pest or weed control at 250 g/ha: 250 g ai/ha
In short: as §1

[5] = test system: barnyardgrass (Echinochloa crus-galli); assay: Test G Pre-Emergence Protocol; settings: Echinochloa crus-galli, pre-emergence, 312 h, evaluated after 13 days; for pest or weed control at 15.625 g/ha: 15.625 g ai/ha, read-out: Barnyard grass damage rating (100=total damage to plant; 0=no damage to plant); for pest or weed control at 62.5 g/ha: 62.5 g ai/ha, 100=total damage to plant, 0=no damage to plant, read-out: plant damage rating, Barnyardgrass; for pest or weed control at 250 g/ha: 250 g ai/ha, read-out: Barnyardgrass damage rating (100=total damage to plant; 0=no damage to plant)
In short: as §1

[6] = test system: ivy-leaved morning glory (Ipomoea hederacea); assay: Test G Pre-Emergence Protocol; settings: Ipomoea, pre-emergence, 312 h, evaluated after 13 days; for pest or weed control at 15.625 g/ha: 15.625 g ai/ha, read-out: Morning-glory, Ivy-leaved damage rating (100=total damage to plant; 0=no damage to plant); for pest or weed control at 62.5 g/ha: 62.5 g ai/ha, 100=total damage to plant, 0=no damage to plant, read-out: plant damage rating, Morningglory, Ivy-leaved; for pest or weed control at 250 g/ha: 250 g ai/ha, read-out: Morningglory, Ivy-leaved damage rating (100=total damage to plant; 0=no damage to plant)
In short: as §1

[7] = test system: velvetleaf (Abutilon theophrasti); assay: Test G Post-Emergence Protocol; settings: Abutilon theophrasti, post-emergence, 312 h; for pest or weed control at 15.625 g/ha: 15.625 g ai/ha, evaluated after 13 days (100=total damage to plant; 0=no damage to plant), read-out: Velvetleaf damage rating; for pest or weed control at 62.5 g/ha: 62.5 g ai/ha, read-out: Velvetleaf damage rating (100=total damage to plant; 0=no damage to plant); for pest or weed control at 62.5 g/ha / pest or weed control at 250 g/ha: evaluated after 13 days; for pest or weed control at 250 g/ha: 250 g ai/ha, read-out: damage to plant, Velvetleaf (100=total damage to plant; 0=no damage to plant)
In short: (§2)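 Values are percent visual injury at 13 days after treatment (0 none, 100 total). Treatment was a post-emergence spray at 15.625, 62.5 or 250 g/ha on 8-day-old pot plants kept at 24/16 °C.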

[8] = test system: giant foxtail (Setaria faberi); assay: Test G Post-Emergence Protocol; settings: Setaria faberi, post-emergence, 312 h; for pest or weed control at 15.625 g/ha: 15.625 g ai/ha, evaluated after 13 days (100=total damage to plant; 0=no damage to plant), read-out: Foxtail, Giant damage rating; for pest or weed control at 62.5 g/ha: 62.5 g ai/ha, read-out: Foxtail, Giant damage rating (100=total damage to plant; 0=no damage to plant); for pest or weed control at 62.5 g/ha / pest or weed control at 250 g/ha: evaluated after 13 days; for pest or weed control at 250 g/ha: 250 g ai/ha, read-out: damage to plant, Foxtail, Giant (100=total damage to plant; 0=no damage to plant)
In short: as §2

corn (Zea mays) [9] = assay: Test G Post-Emergence Protocol; settings: Zea mays, post-emergence, 312 h; for plant injury at 15.625 g/ha: 15.625 g ai/ha, evaluated after 13 days (100=total damage to plant; 0=no damage to plant), read-out: Corn damage rating; for plant injury at 62.5 g/ha: 62.5 g ai/ha, read-out: Corn damage rating (100=total damage to plant; 0=no damage to plant); for plant injury at 62.5 g/ha / plant injury at 250 g/ha: evaluated after 13 days; for plant injury at 250 g/ha: 250 g ai/ha, read-out: damage to plant, Corn (100=total damage to plant; 0=no damage to plant)
In short: as §2

[10] = test system: redroot pigweed (Amaranthus retroflexus); assay: Test G Post-Emergence Protocol; settings: Amaranthus retroflexus, post-emergence, 312 h; for pest or weed control at 15.625 g/ha: 15.625 g ai/ha, evaluated after 13 days (100=total damage to plant; 0=no damage to plant), read-out: Pigweed, Redroot damage rating; for pest or weed control at 62.5 g/ha: 62.5 g ai/ha, read-out: Pigweed, Redroot damage rating (100=total damage to plant; 0=no damage to plant); for pest or weed control at 62.5 g/ha / pest or weed control at 250 g/ha: evaluated after 13 days; for pest or weed control at 250 g/ha: 250 g ai/ha, read-out: damage to plant, Pigweed, Redroot (100=total damage to plant; 0=no damage to plant)
In short: as §2

[11] = test system: barnyardgrass (Echinochloa crus-galli); assay: Test G Post-Emergence Protocol; settings: Echinochloa crus-galli, post-emergence, 312 h; for pest or weed control at 15.625 g/ha: 15.625 g ai/ha, evaluated after 13 days (100=total damage to plant; 0=no damage to plant), read-out: Barnyardgrass damage rating; for pest or weed control at 62.5 g/ha: 62.5 g ai/ha, read-out: Barnyardgrass damage rating (100=total damage to plant; 0=no damage to plant); for pest or weed control at 62.5 g/ha / pest or weed control at 250 g/ha: evaluated after 13 days; for pest or weed control at 250 g/ha: 250 g ai/ha, read-out: damage to plant, Barnyardgrass (100=total damage to plant; 0=no damage to plant)
In short: as §2

[12] = test system: ivy-leaved morning glory (Ipomoea hederacea); assay: Test G Post-Emergence Protocol; settings: Ipomoea, post-emergence, 312 h; for pest or weed control at 15.625 g/ha: 15.625 g ai/ha, evaluated after 13 days (100=total damage to plant; 0=no damage to plant), read-out: Morningglory, Ivy-leaved damage rating; for pest or weed control at 62.5 g/ha: 62.5 g ai/ha, read-out: Morningglory, Ivy-leaved damage rating (100=total damage to plant; 0=no damage to plant); for pest or weed control at 62.5 g/ha / pest or weed control at 250 g/ha: evaluated after 13 days; for pest or weed control at 250 g/ha: 250 g ai/ha, read-out: damage to plant, Morningglory, Ivy-leaved (100=total damage to plant; 0=no damage to plant)
In short: as §2

Row | SMILES | pest or weed control at 15.625 g/ha [1] [%] | pest or weed control at 62.5 g/ha [1] [%] | pest or weed control at 250 g/ha [1] [%] | pest or weed control at 15.625 g/ha [2] [%] | pest or weed control at 62.5 g/ha [2] [%] | pest or weed control at 250 g/ha [2] [%] | plant injury at 15.625 g/ha (corn (Zea mays) [3]) [%] | plant injury at 62.5 g/ha (corn (Zea mays) [3]) [%] | plant injury at 250 g/ha (corn (Zea mays) [3]) [%] | pest or weed control at 15.625 g/ha [4] [%] | pest or weed control at 62.5 g/ha [4] [%] | pest or weed control at 250 g/ha [4] [%] | pest or weed control at 15.625 g/ha [5] [%] | pest or weed control at 62.5 g/ha [5] [%] | pest or weed control at 250 g/ha [5] [%] | pest or weed control at 15.625 g/ha [6] [%] | pest or weed control at 62.5 g/ha [6] [%] | pest or weed control at 250 g/ha [6] [%] | pest or weed control at 15.625 g/ha [7] [%] | pest or weed control at 62.5 g/ha [7] [%] | other results
1 | CN1C[C@@H](c2ccc(C(F)(F)F)cc2)[C@H](C(=O)Nc2csc(C(F)(F)F)n2)C1=O (racemic) [Compound 1587] | 0 | 0 | 0 | 0 | 0 | 0 | 0 | 10 | 0 | 0 | 0 | 10 | 0 | 0 | 0 | 0 | 0 | 0 | 0 | 0 | pest or weed control at 250 g/ha [7]: 0%; pest or weed control at 15.625 g/ha [8]: 0%; pest or weed control at 62.5 g/ha [8]: 20%; pest or weed control at 250 g/ha [8]: 60%; plant injury at 15.625 g/ha (corn (Zea mays) [9]): 0%; plant injury at 62.5 g/ha (corn (Zea mays) [9]): 0%; plant injury at 250 g/ha (corn (Zea mays) [9]): 0%; pest or weed control at 15.625 g/ha [10]: 0%; pest or weed control at 62.5 g/ha [10]: 10%; pest or weed control at 250 g/ha [10]: 70%; pest or weed control at 15.625 g/ha [11]: 0%; pest or weed control at 62.5 g/ha [11]: 20%; pest or weed control at 250 g/ha [11]: 40%; pest or weed control at 15.625 g/ha [12]: 0%; pest or weed control at 62.5 g/ha [12]: 0%; pest or weed control at 250 g/ha [12]: 40%
2 | CN1C[C@H](c2ccc(C(F)(F)F)cc2)[C@@H](C(=O)Nc2ccc(F)cc2[N+](=O)[O-])C1=O (racemic) [Compound 1425] | 0 | 0 | 0 | 10 | 80 | 80 | 0 | 0 | 0 | 0 | 0 | 0 | 0 | 40 | 60 | 0 | 0 | 0 | 0 | 0 | pest or weed control at 250 g/ha [7]: 0%; pest or weed control at 15.625 g/ha [8]: 10%; pest or weed control at 62.5 g/ha [8]: 40%; pest or weed control at 250 g/ha [8]: 50%; plant injury at 15.625 g/ha (corn (Zea mays) [9]): 10%; plant injury at 62.5 g/ha (corn (Zea mays) [9]): 10%; plant injury at 250 g/ha (corn (Zea mays) [9]): 10%; pest or weed control at 15.625 g/ha [10]: 20%; pest or weed control at 62.5 g/ha [10]: 30%; pest or weed control at 250 g/ha [10]: 40%; pest or weed control at 15.625 g/ha [11]: 0%; pest or weed control at 62.5 g/ha [11]: 20%; pest or weed control at 250 g/ha [11]: 20%; pest or weed control at 15.625 g/ha [12]: 0%; pest or weed control at 62.5 g/ha [12]: 0%; pest or weed control at 250 g/ha [12]: 0%
